# Columns and labels:
# [1] = test system: ULK kinase substrate ATG13 (pS318-ATG13) in A549 (KRAS mutant) cells; assay: pATG13 levels of mutant KRas A549 cells after treatment with ULK inhibitors in combination with trametinib (ELISA); format: cell-based, human
# Procedure: Cellular Inhibition of ULK Kinase Substrate ATG13 Protein pATG13 Levels of Mutant KRas A549 Cells after Treatment with ULK Inhibitors in Combination with Trametinib
# A549 (KRAS mutant) human lung cancer cells (6,000 cells/well) were added to a 384-well tissue-culture treated plate in 50 μL of pre-warmed DMEM medium supplemented with 10% characterized fetal bovine serum (Invitrogen, Carlsbad, CA), 100 units/mL penicillin G, and 100 μg/mL streptomycin and allowed to grow overnight at 37° C., 5% CO2, and 95% humidity. The following day, 10 μL of media containing trametinib or DMSO as a control was added to wells. The final concentration of trametinib in wells was 250 nM. A dose response of a test compound (0.6 μL per well) was added. DMSO (0.6 μL) was added to control wells. The plate was briefly shaken to mix wells and then incubated at 37° C. overnight. The next day, the media was aspirated and cells were washed with Dulbecco's Phosphate Buffered Saline (Gibco). Cells were lysed using MPER lysis buffer (Pierce, Rockford, IL) containing Halt Phosphatase and Protease Inhibitors (Pierce, Rockford, IL) and Phosphatase inhibitor cocktail 2 (Sigma, St. Louis, MO) at 4° C. for 10 min with shaking.
# Cellular levels of phospho-Serine 318 ATG13 (pATG13) were measured via an ELISA method. Total ATG13 Antibody (Cell Signaling Cat #13273) was used to coat the wells. The plate was incubated at 4° C. overnight and washed with ELISA wash buffer (Biolegend Cat #421601). The wells were then blocked with assay diluent (Biolegend Cat #421203) for 1 h at rt. Plate wells were washed with ELISA wash buffer. Cell lysate was added to wells and incubated at rt for 2 h. Plate wells were washed with ELISA wash buffer. Biotinylated pS318-ATG13 antibody (Rockland Immunochemicals Cat #600-401-C49) was diluted in assay diluent and added to each well and incubated at rt for 1 h. Plate wells were washed with ELISA wash buffer. Streptavidin linked to horseradish peroxidase (Thermo Fisher Cat #21140) was diluted in assay diluent and added to each well and incubated at rt for 1 h. Plate wells were washed with ELISA wash buffer. High sensitivity TMB substrate (Biolegend Cat #421101) was added to each well and incubated at rt for 20 min. The reaction was stopped with 2N Sulfuric Acid. The plate was analyzed at on a plate reader measuring absorbance at 450 nm and 540 nm (background). Signal was calculated by first subtracting the background absorbance at 540 nm from the absorbance at 450 nm for each well. Next, the background corrected absorbance at 450 nm from blank wells was subtracted from test wells. Data was compared to control wells to determine % ATG13 phosphorylation. GraphPad Prism was used to calculate IC50 values.
# ULK1 kinase = molecular target: T1, ULK1 kinase (Homo sapiens, UniProt O75385, E37A/K38A); assay: Biochemical assay for ULK1 (coupled pyruvate kinase/lactate dehydrogenase assay); settings: 1 mM ATP, 0.1 nM ULK1; read-out: ULK1 (inhibition of biochemical activity), IC50
# T1 construct: (residues 1-283; ID NO: 1); purchased Beryllium
# T1 sequence (O75385 1-283 E37A/K38A): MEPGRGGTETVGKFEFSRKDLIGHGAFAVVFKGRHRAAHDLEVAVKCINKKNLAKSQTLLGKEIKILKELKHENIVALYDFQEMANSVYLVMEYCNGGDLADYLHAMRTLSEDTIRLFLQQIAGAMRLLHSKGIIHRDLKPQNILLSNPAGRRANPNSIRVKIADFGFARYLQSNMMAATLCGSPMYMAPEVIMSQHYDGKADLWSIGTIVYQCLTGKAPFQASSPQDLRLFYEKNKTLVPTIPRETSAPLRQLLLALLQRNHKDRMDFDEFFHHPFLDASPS
# How it was run: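 IC50 values were fitted to percent inhibition, normalised with no-compound and known-inhibitor controls, using rates from 2–3 h of a 6 h read at 30 °C. ADP was coupled through pyruvate kinase/lactate dehydrogenase to NADH loss at 340 nm.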
Structure (SMILES),IC50 [1] [nM],IC50 (ULK1 kinase) [nM]
"CC/C(Nc1cnn(C2CCN(C(C)C)CC2)c1)=C1/C(=O)Nc2ccc(C(=O)NCC3CCC(C4CC4)O3)cc21 (stereo not drawn) [Example 3, (Z)—N-((5-cyclopropyltetrahydrofuran-2-yl)methyl)-3-(1-((1-(1-isopropylpiperidin-4-yl)-1H-pyrazol-4-yl)amino)propylidene)-2-oxoindoline-5-carboxamide]",100 to 300,10 to 100
"CC/C(Nc1cnn(C(C)C)c1)=C1/C(=O)Nc2ccc(C(=O)NCC(F)(F)F)cc21 [Example 4, (Z)-3-(1-((1-isopropyl-1H-pyrazol-4-yl)amino)propylidene)-2-oxo-N-(2,2,2-trifluoroethyl)indoline-5-carboxamide]",100 to 300,≤ 10
"CC/C(Nc1cnn(C(C)C)c1)=C1/C(=O)Nc2ccc(C(=O)NCC3(C)COC3)cc21 [Example 5, (Z)-3-(1-((1-isopropyl-1H-pyrazol-4-yl)amino)propylidene)-N-((3-methyloxetan-3-yl)methyl)-2-oxoindoline-5-carboxamide]",> 600,10 to 100
CC/C(Nc1cnn(C2CCN(C(C)C)CC2)c1)=C1/C(=O)Nc2ccc(C(=O)N(C)CC(F)(F)F)cc21 [Example 7],≤ 100,≤ 10
CC/C(Nc1cnn(C2CCN(C(C)C)CC2)c1)=C1/C(=O)Nc2ccc(C(=O)NCC(F)(F)F)cc21 [Example 8],≤ 100,≤ 10
CC/C(Nc1cnn(C2CCN(C(C)C)CC2)c1)=C1/C(=O)Nc2ccc(C(=O)N(C)CCOC)cc21 [Example 9],300 to 600,10 to 100
CC/C(Nc1cnn(C2CCN(C(C)C)CC2)c1)=C1/C(=O)Nc2ccc(C(=O)NCC(C)C)cc21 [Example 16],≤ 100,≤ 10
CC/C(Nc1cnn(C2CCN(C(C)C)CC2)c1)=C1/C(=O)Nc2ccc(C(=O)NCC3CCO3)cc21 (stereo not drawn) [Example 21],> 600,10 to 100
CC/C(Nc1cnn(C2CCN(C(C)C)CC2)c1)=C1/C(=O)Nc2ccc(C(=O)NCCC#N)cc21 [Example 26],> 600,≤ 10
CC/C(Nc1cnn(C2CCN(C(C)C)CC2)c1)=C1/C(=O)Nc2ccc(C(=O)NCC(C)(C)OC)cc21 [Example 27],100 to 300,10 to 100
CC/C(Nc1cnn(C2CCN(C(C)C)CC2)c1)=C1/C(=O)Nc2ccc(C(=O)NCC(C)(C)O)cc21 [Example 28],> 600,10 to 100
CC/C(Nc1cnn(C2CCN(C(C)C)CC2)c1)=C1/C(=O)Nc2ccc(C(=O)NC3CC(F)(F)C3)cc21 [Example 29],300 to 600,≤ 10
CC/C(Nc1cnn(C2CCN(C(C)C)CC2)c1)=C1/C(=O)Nc2ccc(C(=O)NCC3CC(F)(F)C3)cc21 [Example 30],100 to 300,≤ 10
CC/C(Nc1cnn(C2CCN(C(C)C)CC2)c1)=C1/C(=O)Nc2ccc(C(=O)NCCC(F)(F)F)cc21 [Example 31],≤ 100,≤ 10
CC/C(Nc1cnn(C2CCN(C3CCOCC3)CC2)c1)=C1/C(=O)Nc2ccc(C(=O)NCC(C)C)cc21 [Example 37],≤ 100,≤ 10
CC/C(Nc1cnn(C2CCN(C(C)C)CC2)c1)=C1/C(=O)Nc2ccc(C(=O)NCC3CC3)cc21 [Example 42],≤ 100,≤ 10
CC/C(Nc1cnn(C2CCN(C(C)C)CC2)c1)=C1/C(=O)Nc2ccc(C(=O)NCC3CCCC3)cc21 [Example 44],≤ 100,≤ 10
CC/C(Nc1ccc(N2CCN(C(C)C)CC2)cc1)=C1/C(=O)Nc2ccc(C(=O)NC[C@H]3CCCO3)cc21 [Example 47],≤ 100,≤ 10
CC/C(Nc1cnn(C2CCN(C)CC2)c1)=C1/C(=O)Nc2ccc(C(=O)NC[C@H]3CCCO3)cc21 [Example 51],> 600,≤ 10
CC/C(Nc1cnn(C2CCNCC2)c1)=C1/C(=O)Nc2ccc(C(=O)NC[C@H]3CCCO3)cc21 [Example 52],> 600,≤ 10
CC/C(Nc1cnn(C2CC3CCC(C2)N3C)c1)=C1/C(=O)Nc2ccc(C(=O)NC[C@H]3CCCO3)cc21 (stereo partly drawn) [Example 53],> 600,≤ 10

Structure (SMILES),IC50 [1] [nM],IC50 (ULK1 kinase) [nM]
CC/C(Nc1cnn(C2CN(C)C2)c1)=C1/C(=O)Nc2ccc(C(=O)NC[C@H]3CCCO3)cc21 [Example 54],300 to 600,≤ 10
CC/C(Nc1cnn(C)c1)=C1/C(=O)Nc2ccc(C(=O)NC[C@H]3CCCO3)cc21 [Example 55],100 to 300,10 to 100
CC/C(Nc1cnn(C2CCN(C(C)C)CC2)c1)=C1/C(=O)Nc2ccc(C(=O)NC[C@@H](C)OC)cc21 [Example 58],100 to 300,10 to 100
CC/C(Nc1ccc(N2CC3CC(C2)N3C)cc1)=C1/C(=O)Nc2ccc(C(=O)NCC(F)(F)F)cc21 [Example 60],≤ 100,≤ 10
CC/C(Nc1ccc(N2C[C@H]3CN(C)C[C@H]3C2)cc1)=C1/C(=O)Nc2ccc(C(=O)NCC(F)(F)F)cc21 [Example 61],≤ 100,≤ 10
CC/C(Nc1ccc(N2CC3(CN(C)C3)C2)cc1)=C1/C(=O)Nc2ccc(C(=O)NCC(F)(F)F)cc21 [Example 62],100 to 300,≤ 10
CC/C(Nc1ccc(N2CCN(C(C)C)CC2)cn1)=C1/C(=O)Nc2ccc(C(=O)NC[C@H]3CCCO3)cc21 [Example 93],≤ 100,≤ 10
CC/C(Nc1cnc(N2CCN(C(C)C)CC2)cn1)=C1/C(=O)Nc2ccc(C(=O)NCC(F)(F)F)cc21 [Example 94],100 to 300,10 to 100
CC/C(Nc1cnn(C(C)C)c1)=C1/C(=O)Nc2ccc(C(=O)NC[C@H]3CCCO3)cc21 [Example 95],≤ 100,≤ 10
CC/C(Nc1cnn(C2CCN(C(C)C)CC2)c1)=C1/C(=O)Nc2ccc(C(=O)NCCOC)cc21 [Example 98],300 to 600,≤ 10
CC/C(Nc1ccc(N2CCN(C(C)C)CC2)cc1)=C1/C(=O)Nc2cc(F)c(C(=O)NCC(F)(F)F)cc21 [Example 100],300 to 600,100 to 500
C/C(Nc1cnn(C(C)C)c1)=C1/C(=O)Nc2ccc(C(=O)NCC(F)(F)F)cc21 [Example 101],≤ 100,≤ 10
CC/C(Nc1cnn(CCOC)c1)=C1/C(=O)Nc2ccc(C(=O)NCC(F)(F)F)cc21 [Example 102],100 to 300,10 to 100
CC/C(Nc1cnn(CCN(C)C)c1)=C1/C(=O)Nc2ccc(C(=O)NCC(F)(F)F)cc21 [Example 103],300 to 600,≤ 10
CC/C(Nc1cnn([C@H]2CCOC2)c1)=C1/C(=O)Nc2ccc(C(=O)NCC(F)(F)F)cc21 [Example 104],≤ 100,≤ 10
CC/C(Nc1cnn([C@@H]2CCOC2)c1)=C1/C(=O)Nc2ccc(C(=O)NCC(F)(F)F)cc21 [Example 105],≤ 100,≤ 10
CC/C(Nc1cnn(C2CCOCC2)c1)=C1/C(=O)Nc2ccc(C(=O)NCC(F)(F)F)cc21 [Example 106],100 to 300,≤ 10
CC/C(Nc1cnn(CC)c1)=C1/C(=O)Nc2ccc(C(=O)NCC(F)(F)F)cc21 [Example 107],≤ 100,≤ 10
CC/C(Nc1cn[nH]c1)=C1/C(=O)Nc2ccc(C(=O)NCC(F)(F)F)cc21 [Example 108],> 600,10 to 100
CC/C(Nc1cnn(C(C)C)c1)=C1/C(=O)Nc2ccc(C(=O)NCC(F)F)cc21 [Example 112],≤ 100,10 to 100
CC/C(Nc1cnn(C(F)(F)F)c1)=C1/C(=O)Nc2ccc(C(=O)NCC(F)(F)F)cc21 [Example 113],100 to 300,10 to 100
